Source: patent US20240025886A1, “INHIBITORS OF IGF2BP1-RNA BINDING” (YISSUM RESEARCH DEVELOPMENT COMPANY OF THE HEBREW …, priority 2020, published 2024)
Entries after “also recorded” stand apart in the source; their conditions may differ.

What was measured:
[1] = test system: Igf2bp1 split-luciferase reporter in RKO cells; experiment: Split-luciferase assay of Igf2bp1 dimerization in RKO cells; format: cell-based; design: dose or concentration left out as unconfirmed
Experimental: Vectors expressing different fragments of split luciferase reporters with flexible linker were procured from Addgene (catalog #58786, 58787, 58788 and 58789). The vectors were digested with EcoRI and XhoI. EcoRI and XhoI restriction enzyme sites were added to 5′ and 3′ ends of the coding region of IGF2BP1 respectively using PCR. The inventors constructed four split luciferase reporter vectors by cloning IGF2BP1 in different orientation with the luciferase fragments (FIG. 8B). Primers used for the amplification of IGF2BP1 were: […]
The RKO cells were seeded in DMEM with 10% calf serum 24 hrs prior to the transfection. Transfection was done using Lipofectamine 2000 with reporter plasmids and Renilla-luciferase expressing vector (as internal control). After 24 hrs, cells were lysed using passive lysis buffer (Promega catalog #E1941). The lysates were cleared by centrifugation and its […] volume was mixed with […] of luciferase substrate solution for luminescence recording which was followed by addition of […] of Stop-glo solution (Promega catalog #E1910) with an additional luminescence reading. Both readings were detected by using GloMax 20/20 Luminometer (Promega), and the final value for each sample was the ratio of their two respective readings. […]

[2] = target: G9a (Homo sapiens, UniProt Q96KQ7); experiment: G9a fluorescence polarization enzymatic activity assay; format: biochemical; conditions: increasing concentrations
Experimental: For the small molecule screen, compounds were obtained from the collection maintained at the Grand Israel National Center for Personalized Medicine, consisting of molecules purchased from commercial vendors. Labelled RNA (10 nM) was incubated with recombinant Igf2bp1 protein (400 nM) in FAM-RNA buffer (10 mM Tris pH 8.0, 75 mM KCl, 0.5 mM EDTA, 1 mM DTT, 0.0188 U/μL RNAsin, 0.0005 μg/mL heparin, 0.0001 μg/μL tRNA, 0.01% Triton X-100, 3 mM MgCl2, 0.05% IGEPAL) at room temperature for 15 min. […] of this reaction mix was aliquoted with GNF WDII (USA) into wells of 1536 well plates, with a final concentration of […] compound or DMSO. The plates were spun down and read in a BMG Pherastar FS (Germany) plate reader plate reader, in FP mode with a 485/520/520 polarization filter, calibrated to 35 mP for free fluorescein with similar total intensity as experimental samples. The G9a FP assay was based on using an S-adenosylhomocysteine (SAH)-FITC probe and antibody to SAH to produce a high FP signal when the antibody binds to SAH-FITC. Unlabeled SAH produced by incubation of G9a enzyme with S-adenosylmethionine (SAM) and peptide substrate competes for the antibody and results in a low FP signal. 100% activity means that G9a is fully active and therefore a low FP signal is observed (SAH is produced).

[3] = test system: H1299 cells; experiment: Real-time PCR of steady state RNA levels in H1299 cells; format: cell-based, human
Experimental: Primers were calibrated for several Igf2bp1 RNA targets (Table 3): […]
Cells were grown for 12 hours in 12 well plates prior to incubation with the compound at different concentrations for an additional 12 or 24 hours. Total RNA was then extracted using EZ-RNA total RNA isolation kit (Biological Industries) and cDNA prepared from the RNA using the First Strand cDNA Synthesis kit (Quanta bio). Real time PCR was performed with Fast SYBR Green Master Mix (Thermo Fisher Scientific), and cDNA expression analyzed with the Bio-Rad CFX Manager 3.1.

[4] = test system: LKR-M cells transfected with GFP alone; experiment: Wound healing assay, LKR-M cells expressing GFP alone; format: cell-based, mouse; conditions: 20 mM 7773 vs DMSO
Experimental: Cells were seeded in 96 IncuCyte® ImageLock plates (20×10^3 cells per well) for 24 hours, to a near confluency of 95%, before the addition of increasing concentrations of compound. After a further 24 hours, wells were scratched using the IncuCyte® 96-well WoundMaker Tool, and the cells cultured for an additional 48 hours using the IncuCyte® S3 Live-Cell Analysis System (Essen BioScience). The plate was imaged at increments of 120 minutes for a period of 48 hours, and then analyzed for relative wound healing.

[5] = test system: H1299 cells; experiment: Growth in soft agar, H1299 cells; format: cell-based, human; design: dose or concentration left out as unconfirmed; conditions: H1299, 7773
Experimental: Cells were grown for 12 hours in 6 well plates prior to incubation with the compound or DMSO for an additional 48 hours, 2000 cells were suspended in 0.3% agar-complete medium and then seeded in triplicates onto a 0.6% agar-complete medium base in a 6 well plate. After one week, the colonies were fed with 0.3% agar-complete medium, and after 2 additional weeks, imaged and quantified.

[6] = test system: H1299 cells; experiment: Cytotoxicity and cell viability, H1299 cells; format: cell-based, human; design: Cell viability: dose or concentration left out as unconfirmed
[7] = target: T1, Igf2bp1 (Homo sapiens, UniProt Q9NZI8); experiment: Microscale thermophoresis (MST) binding to full-length Igf2bp1; conditions: full-length protein, unit printed μM
T1 construct: Recombinant full-length Igf2bp1 protein; made in house; host or cells: E. coli BL21(DE3)
Experimental: Recombinant full-length Igf2bp1 protein was labelled with RED-tris-NTA dye using a Monolith NT His-Tag Labelling Kit (NanoTemper) while RRM12, KH12 and KH34 di-domain peptides were labelled using the Protein Labeling Kit RED NHS 2nd generation (NanoTemper). Labelled proteins were spun at 15,000 g for 5 min to eliminate aggregates. All samples were 2× labelled protein mix of Igf2bp1 (200 nM) in PBST and were combined (1:1) with serial dilutions of compound or Kras6 RNA in binding buffer (10 mMTris pH=7.5, 100 mM NaCl, 0.1 mM EDTA, 0.06% IPEGAL, 0.02 μg/μL tRNA, 2 mM DTT, 0.1 μg/μL heparin) in final volume of 20 μL, room temperature for 15 min. Samples were then loaded into standard capillaries (NanoTemper) and read in the Monolith NT.115 scanner (NanoTemper) using the red filter with reading conditions of 95% LED power and 40% MST power, 5 sec fluorescence before, 30 sec MST on, 5 sec fluorescence after and 25 sec delay between samples. Results were analyzed using the MO Control software (NanoTemper) for curve fitting to KD.

[8] = test system: H1299 cells; experiment: Cell proliferation assay (Incucyte), H1299 cells; format: cell-based, human; conditions: H1299, up to 20 mM 7773
Experimental: ES2, H1299 and HEK293 cells were seeded in a 96 well plate (5×10^3 cells per well) for 24 hours before adding the compound at increasing concentrations. After an additional 24 hours, the plate was incubated in an IncuCyte® S3 Live-Cell Analysis System (Essen BioScience). The wells were filmed for 72 hours, and then analyzed for proliferation rate Using IncuCyte® S3 Live-Cell Analysis System (Essen BioScience)

Sequence of G9a (Q96KQ7 whole entry, species assumed): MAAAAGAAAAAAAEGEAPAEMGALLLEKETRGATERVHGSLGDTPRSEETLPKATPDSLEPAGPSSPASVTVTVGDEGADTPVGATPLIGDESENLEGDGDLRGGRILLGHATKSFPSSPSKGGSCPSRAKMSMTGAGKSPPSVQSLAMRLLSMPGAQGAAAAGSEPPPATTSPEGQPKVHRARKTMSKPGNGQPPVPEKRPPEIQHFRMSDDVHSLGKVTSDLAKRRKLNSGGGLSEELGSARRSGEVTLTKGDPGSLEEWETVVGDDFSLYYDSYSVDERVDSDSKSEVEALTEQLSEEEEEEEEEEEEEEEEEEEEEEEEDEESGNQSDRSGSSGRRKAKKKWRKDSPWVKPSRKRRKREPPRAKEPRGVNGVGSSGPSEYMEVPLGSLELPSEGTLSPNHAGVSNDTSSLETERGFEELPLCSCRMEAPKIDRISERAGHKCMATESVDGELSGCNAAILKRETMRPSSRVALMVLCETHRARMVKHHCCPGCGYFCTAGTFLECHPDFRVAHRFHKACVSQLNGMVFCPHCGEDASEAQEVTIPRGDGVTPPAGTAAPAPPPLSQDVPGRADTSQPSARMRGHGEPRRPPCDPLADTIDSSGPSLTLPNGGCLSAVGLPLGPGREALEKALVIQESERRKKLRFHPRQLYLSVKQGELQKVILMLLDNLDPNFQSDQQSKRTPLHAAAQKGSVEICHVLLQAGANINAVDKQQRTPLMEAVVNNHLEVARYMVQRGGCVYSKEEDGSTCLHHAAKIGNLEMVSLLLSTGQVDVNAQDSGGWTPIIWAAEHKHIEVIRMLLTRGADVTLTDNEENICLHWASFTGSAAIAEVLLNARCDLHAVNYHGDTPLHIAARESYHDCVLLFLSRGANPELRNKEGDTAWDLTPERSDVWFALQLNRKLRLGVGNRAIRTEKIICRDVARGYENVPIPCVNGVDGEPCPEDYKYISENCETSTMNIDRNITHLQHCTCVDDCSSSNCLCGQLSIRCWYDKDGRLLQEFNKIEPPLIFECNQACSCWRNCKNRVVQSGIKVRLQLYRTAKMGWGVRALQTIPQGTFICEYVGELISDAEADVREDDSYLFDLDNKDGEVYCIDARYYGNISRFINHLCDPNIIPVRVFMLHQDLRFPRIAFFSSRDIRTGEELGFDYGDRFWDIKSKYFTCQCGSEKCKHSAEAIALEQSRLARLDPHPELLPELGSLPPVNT
T1 sequence (Q9NZI8 whole entry): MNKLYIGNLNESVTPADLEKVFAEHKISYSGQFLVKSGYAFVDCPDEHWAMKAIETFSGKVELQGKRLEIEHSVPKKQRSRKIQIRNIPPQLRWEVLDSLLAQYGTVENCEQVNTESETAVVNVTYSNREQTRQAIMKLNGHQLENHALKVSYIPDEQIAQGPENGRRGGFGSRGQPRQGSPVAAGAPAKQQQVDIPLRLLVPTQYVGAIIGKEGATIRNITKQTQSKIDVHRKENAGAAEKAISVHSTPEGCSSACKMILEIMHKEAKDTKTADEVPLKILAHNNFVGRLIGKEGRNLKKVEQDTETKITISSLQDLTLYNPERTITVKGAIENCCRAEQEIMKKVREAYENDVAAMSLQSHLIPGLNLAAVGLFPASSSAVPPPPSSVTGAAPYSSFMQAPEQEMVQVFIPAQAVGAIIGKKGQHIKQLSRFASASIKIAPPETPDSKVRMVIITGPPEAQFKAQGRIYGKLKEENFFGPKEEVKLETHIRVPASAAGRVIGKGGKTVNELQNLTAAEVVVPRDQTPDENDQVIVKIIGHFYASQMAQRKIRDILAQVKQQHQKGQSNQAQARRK

For O=C(c1ccc(Cn2cnnn2)cc1)N1CCCC(Nc2ccc3c(c2)OCO3)C1 (centres unmarked) [Compound 7773], the Split-luciferase luminescence [1] was “significantly reduced luminescence”, the “Inhibition of G9a enzymatic activity” value [2] was “almost no effect; also recorded: does not inhibit” and the “Steady state level of Kras mRNA” value ([3]; H1299, 20 mM 7773, 12 hours) was “already reduced”. The “Steady state levels of CD44, Kras, cMyc and SRF RNA” value ([3]; H1299, 20 mM 7773, 24 hours) was “significantly reduced”, the “Steady state levels of control RNAs (not targets of Igf2bp1)” value ([3]; H1299, 20 mM 7773, 24 hours) was “not significantly affected” and the “Effect on migration of cells expressing GFP alone” value [4] was “unaffected”. The “Ability to form colonies in soft agar” value [5] was “dramatically inhibited”, the Cytotoxicity ([6]; H1299, 20, 10 or 5 mM 7773, 48 hours) was “virtually no effect” and the Cell viability ([6]; H1299, 7773, 48 hours) was “does not affect”. The Kd [7] was 17 µM and the Cell proliferation [8] was “remarkably unaffected”.
